Test results as given in patent publication US10435406B2, “6,7-cyclicmorphinan derivatives and use thereof” (Purdue Pharma L.P., priority 2014, dated 2019).

Legend:
Assay type in all cases: biochemical
μ-opioid receptor [1] = target: T1, μ-opioid receptor (Homo sapiens (Human), UniProt P35372); assay: μ-opioid receptor [35S]GTPγS functional assay (HEK); details: for Emax: relative to DAMGO
Procedure: (§1) [^35S]GTPγS functional assays were conducted using freshly thawed μ-receptor membranes prepared in-house from a cell line expressing recombinant μ opioid receptor in a HEK-293, CHO or U-2 OS cell background, or purchased from a commercial source (Perkin Elmer, Shelton, Conn.; or DiscovRx, Fremont, Calif.). Assay reactions were prepared by sequentially adding the following reagents to binding buffer (100 mM NaCl, 10 mM MgCl2, 20 mM HEPES, pH 7.4) on ice (final concentrations indicated): membrane protein (0.026 mg/mL), saponin ([…]), GDP ([…]) and [^35S]GTPγS (0.20 nM; Perkin Elmer, Shelton, Conn.). The prepared membrane solution (190 μl/well) was transferred to 96-shallow well polypropylene plates containing 10 μl of 20× concentrated stock solutions of the agonist [D-Ala^2, N-methyl-Phe^4 Gly-ol^5]-enkephalin (DAMGO) prepared in dimethyl sulfoxide (DMSO). Plates were incubated for […] at about 25° C. with shaking. Reactions were terminated by rapid filtration onto 96-well Unifilter GF/B filter plates (Perkin Elmer, Shelton, Conn.) using a 96-well tissue harvester (Perkin Elmer, Shelton, Conn.) followed by three filtration washes with 200 μl of ice-cold wash buffer (10 mM NaH2PO4, 10 mM Na2HPO4, pH 7.4). Filter plates were subsequently dried at 50° C. for 2-3 hours. BetaScint scintillation cocktail (Perkin Elmer, Shelton, Conn.) was added (50 μl/well) and plates were counted using a Packard Top-Count for 1 min/well. Data were analyzed using the sigmoidal dose-response curve fitting functions in GraphPad PRISM v. 3.0, or an in-house function for non-linear, sigmoidal dose-response curve-fitting.
(§2) μ GTP EC50 is the concentration of a compound providing 50% of the maximal response for the compound at a μ-opioid receptor.
(§3) μ GTP Emax (%) is the maximal effect elicited by a compound relative to the effect elicited by DAMGO, a standard agonist. Generally, the μ GTP Emax (%) value measures the efficacy of a compound to treat or prevent pain or other Conditions.
(§4) In TABLE 3, activity response of certain Compounds of the Invention to the μ- and κ-opioid receptors was determined as described above for functional assays using HEK cells.

κ opioid receptor [2] = target: T2, κ opioid receptor (Homo sapiens (Human), UniProt P41145); assay: κ-opioid receptor [35S]GTPγS functional assay (U-2 OS); details: for Emax: U2OS, GTPγS, relative to U69,593
Procedure: (§5) Functional [^35S]GTPγS binding assays were conducted as follows. K opioid receptor membrane solution was prepared by sequentially adding final concentrations of 0.026 μg/μl membrane protein (in-house), 10 μg/mL saponin, 3 μM GDP and 0.20 nM [^35S]GTPγS to binding buffer (100 mM NaCl, 10 mM MgCl2, 20 mM HEPES, pH 7.4) on ice. The prepared membrane solution (190 μl/well) was transferred to 96-shallow well polypropylene plates containing 10 μl of 20× concentrated stock solutions of agonist prepared in DMSO. Plates were incubated for 30 min at a temperature of about 25° C. with shaking. Reactions were terminated by rapid filtration onto 96-well Unifilter GF/B filter plates (Perkin Elmer, Shelton, Conn.) using a 96-well tissue harvester (Packard) and followed by three filtration washes with 200 μl ice-cold binding buffer (10 mM NaH2PO4, 10 mM Na2HPO4, pH 7.4). Filter plates were subsequently dried at 50° C. for 2-3 hours. Fifty μl/well scintillation cocktail (Perkin Elmer, Shelton, Conn.) was added and plates were counted in a Packard Top-Count for 1 min/well.
(§6) GTP EC50 is the concentration of a compound providing 50% of the maximal response for the compound at a κ receptor.
(§7) κ GTP Emax (%) is the maximal effect elicited by a compound relative to the effect elicited by U69,593.
(§8) In TABLE 4, activity response of certain Compounds of the Invention to the μ- and κ-opioid receptors was determined as described above for functional assays using U-2 OS cells.

μ-opioid receptor [3] = target: T1, μ-opioid receptor; assay: μ-opioid receptor [35S]GTPγS functional assay (U-2 OS); details: for Emax: U2OS, GTPγS, relative to DAMGO
Procedure: as §1, §2, §3, §8

κ opioid receptor [4] = target: T2, κ opioid receptor; assay: κ-opioid receptor [35S]GTPγS functional assay (HEK); details: for Emax: HEK, GTPγS, relative to U69,593
Procedure: as §5, §6, §7, §4

COc1ccc2c(c1)[C@]13CCN(C)[C@H](C2)[C@]1(O)CC1=CC(=O)N[C@H]1C3 [Compound 2, (6R,6aS,10aS,11aR)-6a-hydroxy-2-methoxy-14-methyl-5,6,6a,7,10a,11-hexahydro-6,11a-(epiminoethano)naphtho[2,1-f]indol-9(10H)-one]
EC50 (μ-opioid receptor [1]): 12.3 ± 0.615 µM | Emax (μ-opioid receptor [1]; HEK, GTPγS): 51.8 ± 0.39% | EC50 (κ opioid receptor [2]): > 20000 nM | Emax (κ opioid receptor [2]): 84.7 ± 2.73% | EC50 (μ-opioid receptor [3]): 738 ± 59 nM | Emax (μ-opioid receptor [3]): 103.3 ± 0.67%

COc1ccc2c(c1)[C@]13CCN(C)[C@H](C2)[C@]1(O)C[C@H]1CC(=O)N[C@H]1C3 [Compound 3, (6R,6aS,7aS,10aS,11aR)-6a-hydroxy-2-methoxy-14-methyl-5,6,6a, 7,7a,8,10a,11-octahydro-6,11a-(epiminoethano)naphtho[2,1-f]indol-9(10H)-one]
EC50 (μ-opioid receptor [1]): 2.28 µM | Emax (μ-opioid receptor [1]; HEK, GTPγS): 106 ± 0.58% | EC50 (κ opioid receptor [2]): > 20000 nM | Emax (κ opioid receptor [2]): 108 ± 9.39% | EC50 (μ-opioid receptor [3]): 92.9 ± 6.03 nM | Emax (μ-opioid receptor [3]): 102.7 ± 0.67% | EC50 (κ opioid receptor [4]): 18800 ± 4870 nM | Emax (κ opioid receptor [4]): 52 ± 6.11%

O=C1C[C@@H]2C[C@@]3(O)[C@H]4Cc5ccc(O)cc5[C@@]3(CCN4CCCc3ccccc3)C[C@@H]2N1 [Compound 4, (6R,6aS,7aS,10aS,11aR)-2,6a-dihydroxy-14-(3-phenylpropyl)-5,6,6a,7,7a,8,10a,11-octahydro-6,11a-(epiminoethano)naphtho[2,1-f]indol-9(10H)-one]
EC50 (μ-opioid receptor [1]): 0.321 ± 0.0206 µM | Emax (μ-opioid receptor [1]; HEK, GTPγS): 47.3 ± 7.26%

O=C1C[C@@H]2C[C@@]3(O)[C@H]4Cc5ccc(O)cc5[C@@]3(CCN4CC3CCOCC3)C[C@@H]2N1 [Compound 6, (6R,6aS,7aS,10aS,11aR)-2,6a-dihydroxy-14-((tetrahydro-2H-pyran-4-yl)methyl)-5,6,6a,7,7a,8,10a,11-octahydro-6,11a-(epiminoethano)naphtho[2,1-f]indol-9(10H)-one]
EC50 (μ-opioid receptor [1]): 1.47 µM | Emax (μ-opioid receptor [1]; HEK, GTPγS): 7.33 ± 0.88%

O=C1C[C@@H]2C[C@@]3(O)[C@H]4Cc5ccc(O)cc5[C@@]3(CCN4CC[C@@]3(c4ccccn4)CCOC4(CCCC4)C3)C[C@@H]2N1 [Compound 7, (6R,6aS,7aS,10aS,11aR)-2,6a-dihydroxy-14-(2-((R)-9-(pyridin-2-yl)-6-oxaspiro-[4.5]decan-9-yl)ethyl)-5,6,6a,7,7a,8,10a,11-octahydro-6,11a-(epiminoethano)-naphtho[2,1-f]indol-9(10H)-one]
EC50 (μ-opioid receptor [1]; HEK, GTPγS, bound given in μM, read-out: μ EC50): > 20 µM | Emax (μ-opioid receptor [1]; HEK, GTPγS): 4.5%

COc1ccc2c(c1)[C@]13CCN(CC4CC4)[C@H](C2)[C@]1(O)CC1=CC(=O)NC1C3 (stereo partly drawn) [Compound 8, (6R,6aS,11aR)-14-(cyclopropylmethyl)-6a-hydroxy-2-methoxy-5,6,6a,7,10a,11-hexahydro-6,11a-(epiminoethano)naphtho[2,1-f]indol-9(10H)-one]
EC50 (μ-opioid receptor [1]): > 20 µM | Emax (μ-opioid receptor [1]; HEK, GTPγS): -0.33 ± 0.67% | EC50 (κ opioid receptor [2]): 585 ± 29.3 nM | Emax (κ opioid receptor [2]): 115 ± 3.53% | EC50 (μ-opioid receptor [3]): 846 ± 72.5 nM | Emax (μ-opioid receptor [3]): 49 ± 1% | EC50 (κ opioid receptor [4]): 1750 ± 197 nM | Emax (κ opioid receptor [4]): 66.7 ± 1.33%

CCN1C(=O)C[C@@H]2C[C@@]3(O)[C@H]4Cc5ccc(OC)cc5[C@@]3(CCN4CC3CC3)C[C@@H]21 [Compound 11, (6R,6aS,7aS,10aS,11aR)-14-(cyclopropylmethyl)-10-ethyl-6a-hydroxy-2-methoxy-5,6,6a,7,7a,8,10a,11-octahydro-6,11a-(epiminoethano)naphtho[2,1-f]indol-9(10H)-one]
EC50 (μ-opioid receptor [1]): 0.625 ± 0.0326 µM | Emax (μ-opioid receptor [1]; HEK, GTPγS): 36.4 ± 2.23% | EC50 (κ opioid receptor [2]): 16.9 ± 1.96 nM | Emax (κ opioid receptor [2]): 107 ± 3.94% | EC50 (μ-opioid receptor [3]): 204 ± 11.2 nM | Emax (μ-opioid receptor [3]): 78 ± 3%

CN1C(=O)C[C@@H]2C[C@@]3(O)[C@H]4Cc5ccc(O)cc5[C@@]3(CCN4CC3CC3)C[C@@H]21 [Compound 12, (6R,6aS,7aS,10aS,11aR)-14-(cyclopropylmethyl)-2,6a-dihydroxy-10-methyl-5,6,6a,7,7a,8,10a,11-octahydro-6,11a-(epiminoethano)naphtho[2,1-f]indol-9(10H)-one]
EC50 (μ-opioid receptor [1]): 0.00218 ± 2.1e-05 µM | Emax (μ-opioid receptor [1]; HEK, GTPγS): 29.3 ± 0.33% | EC50 (κ opioid receptor [4]): 0.66 ± 0.014 nM | Emax (κ opioid receptor [4]): 106 ± 6.78%

COc1ccc2c(c1)[C@]13CCN(CC4CC4)[C@H](C2)[C@]1(O)C[C@H]1CC(=O)N(CC(C)C)[C@H]1C3 [Compound 13, (6R,6aS,7aS,10aS,11aR)-14-(cyclopropylmethyl)-6a-hydroxy-10-isobutyl-2-methoxy-5,6,6a,7,7a,8,10a,11-octahydro-6,11a-(epiminoethano)naphtho[2,1-f]indol-9(10H)-one]
EC50 (μ-opioid receptor [1]): 0.224 ± 0.0346 µM | Emax (μ-opioid receptor [1]; HEK, GTPγS): 13.2 ± 1.39% | EC50 (κ opioid receptor [2]): 19.5 ± 1.37 nM | Emax (κ opioid receptor [2]): 106 ± 2.4% | EC50 (μ-opioid receptor [3]): 82.2 ± 1.71 nM | Emax (μ-opioid receptor [3]): 55 ± 2%

COc1ccc2c(c1)[C@]13CCN(CC4CC4)[C@H](C2)[C@]1(O)C[C@H]1CC(=O)N(CC2CC2)[C@H]1C3 [Compound 14, (6R,6aS,7aS,10aS,11aR)-10,14-bis(cyclopropylmethyl)-6a-hydroxy-2-methoxy-5,6,6a,7,7a,8,10a,11-octahydro-6,11a-(epiminoethano)naphtho[2,1-f]indol-9(10H)-one]
EC50 (μ-opioid receptor [1]): 0.146 ± 0.0211 µM | Emax (μ-opioid receptor [1]; HEK, GTPγS): 13.2 ± 0.95% | EC50 (κ opioid receptor [2]): 16.6 ± 1.93 nM | Emax (κ opioid receptor [2]): 101.8 ± 0.63% | EC50 (μ-opioid receptor [3]): 49.5 ± 3.87 nM | Emax (μ-opioid receptor [3]): 43.7 ± 4.7%

COc1ccc2c(c1)[C@]13CCN(CC4CC4)[C@H](C2)[C@]1(O)C[C@H]1CC(=O)N(C)[C@H]1C3 [Compound 15, (6R,6aS,7aS,10aS,11aR)-14-(cyclopropylmethyl)-6a-hydroxy-2-methoxy-10-methyl-5,6,6a,7,7a,8,10a,11-octahydro-6,11a-(epiminoethano)naphtho[2,1-f]indol-9(10H)-one]
EC50 (μ-opioid receptor [1]): 0.863 ± 0.0697 µM | Emax (μ-opioid receptor [1]; HEK, GTPγS): 23.6 ± 2.32% | EC50 (κ opioid receptor [2]): 113 ± 36.3 nM | Emax (κ opioid receptor [2]): 129 ± 5% | EC50 (μ-opioid receptor [3]): 349 ± 26.3 nM | Emax (μ-opioid receptor [3]): 75 ± 3%

O=C1C[C@@H]2C[C@@]3(O)[C@H]4Cc5ccc(O)cc5[C@@]3(CCN4CC3CC3)C[C@@H]2N1CC1CC1 [Compound 17, (6R,6aS,7aS,10aS,11aR)-10,14-bis(cyclopropylmethyl)-2,6a-dihydroxy-5,6,6a,7,7a,8,10a,11-octahydro-6,11a-(epiminoethano)-naphtho[2,1-f]indol-9(10H)-one]
EC50 (μ-opioid receptor [1]): > 20 µM | Emax (μ-opioid receptor [1]; HEK, GTPγS): 1%

O=C1C=C2C[C@@]3(O)[C@H]4Cc5ccc(O)cc5[C@]3(C=C2N1CC1CC1)CCN4CC1CC1 [Compound 18, (6R,6aS,11aR)-10,14-bis(cyclopropylmethyl)-2,6a-dihydroxy-5,6,6a,7-tetrahydro-6,11a-(epiminoethano)naphtho[2,1-f]indol-9(10H)-one]
EC50 (μ-opioid receptor [1]): > 20 µM | Emax (μ-opioid receptor [1]; HEK, GTPγS): 6%

COc1ccc2c(c1)[C@]13CCN(C)[C@H](C2)[C@]1(O)C[C@@H]1NC(=O)O[C@@H]1C3 [Compound 19, (6R,6aS,7aS,10aR,11aR)-6a-hydroxy-2-methoxy-14-methyl-5,6,6a,7,7a,8,10a,11-octahydro-9H-6,11a-(epiminoethano)phenanthro[2,3-d]oxazol-9-one]
EC50 (μ-opioid receptor [1]): > 20 µM | Emax (μ-opioid receptor [1]; HEK, GTPγS): 2 ± 0.58%

CN1CC[C@]23C[C@@H]4OC(=O)N[C@H]4C[C@@]2(O)[C@H]1Cc1ccc(O)cc13 [Compound 20, (6R,6aS,7aS,10aS,11aR)-2,6a-dihydroxy-14-methyl-5,6,6a,7,7a,8,10a,11-octahydro-9H-6,11a-(epiminoethano)phenanthro[2,3-d]oxazol-9-one]
EC50 (μ-opioid receptor [1]): 1.31 µM | Emax (μ-opioid receptor [1]; HEK, GTPγS): 12.4 ± 0.77%
